{
  "source": "patent US11738031B2",
  "about": "“Compositions and methods for preventing or treating muscle conditions” (The Board of Trustees of the Leland Stanford Junior …, priority 2017, dated 2023)",
  "key": {"[1]": {"system": "endogenous MuSCs in TA muscle", "assay": "Endogenous MuSC BLI in Pax7CreERT2;Rosa26-LSL-Luc mice after cardiotoxin injury", "assay_type": "in vivo, mouse", "details": "single indomethacin injection three days post-cardiotoxin injury", "protocol": "Bioluminescence imaging: We performed bioluminescence imaging (BLI) using a Xenogen-100 system, as previously described^1,5,6. Briefly, we anesthetized mice using isofluorane inhalation and administered 120 μL D-luciferin (0.1 mmol kg^−1, reconstituted in PBS; Caliper LifeSciences) by intraperitoneal injection. We acquired BLI using a 60 s exposure at F-stop=1.0 at 5 minutes after luciferin injection. Digital images were recorded and analyzed using Living Image software (Caliper LifeSciences). We analyzed images with a consistent region-of-interest (ROI) placed over each hindlimb to calculate a bioluminescence signal. We calculated a bioluminescence signal in radiance (p s^−1 cm^−2 sr^−1) value of 10^4 to define an engraftment threshold. This radiance threshold of 10^4 is approximately equivalent to the total flux threshold in p/s reported previously. This BLI threshold corresponds to the histological detection of one or more GFP+ myofibers^1,5,6. We performed BLI imaging every week after transplantation. […]\nWe performed bioluminescence imaging (BLI) using a Xenogen-100 system, as previously described (24, 26, 27, 30). […] Digital images were recorded and analyzed using Living Image software (Caliper LifeSciences). We analyzed images with a consistent region-of-interest (ROI) placed over each hindlimb to calculate a bioluminescence signal. We calculated a bioluminescence signal in radiance (p s^−1 cm^−2 sr^−1) value of 10^4 to define an engraftment threshold. […]\nBioluminescent Imaging: For bioluminescence imaging (BLI), we anesthetized mice using isofluorane inhalation and administered 120 μL D-luciferin (0.1 mmol kg^−1, reconstituted in PBS; Caliper LifeSciences) by intraperitoneal injection. […] Digital images were recorded and analyzed using Living Image software (Caliper LifeSciences). We analyzed images with a consistent region-of-interest (ROI) placed over each hindlimb to calculate a bioluminescence signal. We calculated a bioluminescence signal in radiance (p s^−1 cm^−2 sr^−1) value of 10^4 to define an engraftment threshold. […]"}, "TA muscle": {"system": "TA muscle", "assay": "In vivo muscle force at day 14 post-injury (TA)", "design": "species or system mouse", "protocol": "We used an injury model entailing intramuscular injection of 10 μl of notexin (10 μg ml^−1; Latoxan, catalog #L8104) or cardiotoxin (10 μM; Latoxan, catalog #L8102) into the Tibialis anterior (TA) muscle. For cryoinjury, an incision was made in the skin overlying the TA muscle and a copper probe, chilled in liquid nitrogen, was applied to the TA muscle for three 10 s intervals, allowing the muscle to thaw between each application of the cryoprobe. When indicated, 48 hr after injury either 16,16-Dimethyl Prostaglandin E2 (dmPGE2) (13 nmol, Tocris, catalog #4027), Indomethacin (35 μg, Sigma, catalog #17378) or vehicle control (PBS) was injected into the TA muscle. The contralateral TA was used as an internal control, except for the force measurement experiments where each mouse had both legs injured with the same condition and independent mice were used for each condition.\nMice were injured as described in the Muscle injury section. […] Data were collected with a PCI-6251 acquisition card (National Instruments) and analyzed in Matlab. We calculated specific force values by normalizing the force measurements by the muscle physiological cross-sectional areas (PCSAs), which were similar between groups. PCSA (measured in mm^2) was calculated according to the following equation (55): PCSA (mm^2)=[mass (g)×Cos θ]÷[ρ (g/mm^3)×fiber length (mm)], […]"}, "[2]": {"system": "PGE2 levels of conditioned medium from isolated fibers", "assay": "PGE2 ELISA of conditioned medium from isolated fibers", "assay_type": "cell-based, mouse", "details": "indomethacin 1 μM, 24 hours", "protocol": "For conditioned medium assays, muscle fibers from the extensor digitorum longus (EDL) were isolated as previously described (53). Fibers were cultured in stripped serum medium in the presence or absence of indomethacin (1 μM, Sigma) for 24 hours. Conditioned medium was collected and measured using the PGE2 ELISA Kit (R&D Systems, catalog #KGE004B) and expressed relative to the collected volume (ml). Each sample was assayed in triplicate and in two independent experiments. […]"}, "[3]": {"system": "muscle stem cells (MuSCs)", "assay": "MuSC proliferation in culture, cell number count (hemocytometer)", "assay_type": "cell-based, mouse", "details": "ONO-AE3-208 1 μM with PGE2 10 ng/ml, 24 hr treatment", "protocol": "(§1) Muscle stem cell culture, treatment and lentiviral infection: Following isolation, we resuspended MuSCs in myogenic cell culture medium containing DMEM/F10 (50:50), 15% FBS, 2.5 ng ml^−1 fibroblast growth factor-2 (FGF-2 also known as bFGF) and 1% penicillin-streptomycin. We seeded MuSC suspensions at a density of 500 cells per cm^2 surface area. We maintained cell cultures at 37° C. in 5% CO2 and changed medium daily. For PGE2, 15-PGDH inhibitor and EP4 receptor antagonist treatment studies, we added 1-200 ng/ml Prostaglandin E2 (Cayman Chemical) (unless specified in the figure legends, 10 ng/ml was the standard concentration used), and/or 1 μM EP4 antagonist (ONO-AE3-208, Cayman Chemical), or 1 μM 15-PGDH inhibitor (SW033291, Cayman Chemical) to the MuSCs cultured on collagen coated dishes for the first 24 h. The cells were then trypsinized and cells reseeded onto hydrogels for an additional 6 days of culture. All treatments were compared to their solvent (DMSO) vehicle control. For stripped serum assays, we resuspended isolated MuSCs in medium containing DMEM/F10 (50:50), 15% charcoal stripped FBS (Gibco, cat #12676011), 2.5 ng ml^−1 bFGF and 1% penicillin-streptomycin. […]\nProliferation assays: To assay proliferation, we used three different assays (hemocytometer, VisionBlue, and EdU). […] For hemocytometer cell number count, we collected cells at indicated timepoints by incubation with 0.5% trypsin in PBS for 5 min at 37° C. and quantified them using a hemocytometer at least 3 times. Additionally, we used the VisionBlue Quick Cell Viability Fluorometric Assay Kit (BioVision, catalog #K303) as a readout for cell growth in culture. Briefly, we incubated MuSCs with 10% VisionBlue in culture medium for 3 h, and measured fluorescence intensity on a fluorescence plate reader (Infinite M1000 PRO, Tecan) at Ex=530-570 nm, Em=590-620 nm. […] We quantified EdU positive cells using the MetaMorph Image Analysis software (Molecular Devices). Data analyses were blinded, where researchers performing cell scoring were unaware of the treatment condition given to sample groups analyzed. […]"}, "aged MuSCs": {"system": "aged MuSCs", "assay": "Aged MuSC proliferation in culture", "assay_type": "cell-based, mouse", "details": "PGE2 10 ng/ml or SW033291 1 μM, 24 hr, assayed at day 7", "protocol": "as §1\nProliferation assays: To assay proliferation, we used three different assays (hemocytometer, VisionBlue, and EdU). […] For hemocytometer cell number count, we collected cells at indicated timepoints by incubation with 0.5% trypsin in PBS for 5 min at 37° C. and quantified them using a hemocytometer at least 3 times. Additionally, we used the VisionBlue Quick Cell Viability Fluorometric Assay Kit (BioVision, catalog #K303) as a readout for cell growth in culture. Briefly, we incubated MuSCs with 10% VisionBlue in culture medium for 3 h, and measured fluorescence intensity on a fluorescence plate reader (Infinite M1000 PRO, Tecan) at Ex=530-570 nm, Em=590-620 nm. […] We quantified EdU positive cells using the MetaMorph Image Analysis software (Molecular Devices). Data analyses were blinded, where researchers performing cell scoring were unaware of the treatment condition given to sample groups analyzed."}},
  "note": "“Also recorded” adds a separate entry of the source.",
  "data": [
    {"smiles": "COc1ccc2c(c1)c(CC(=O)O)c(C)n2C(=O)c1ccc(Cl)cc1", "note": "[indomethacin]", "values": [
      {"measurement": "luciferase activity (BLI) of endogenous MuSCs after indomethacin", "setting": "[1]", "result": "significant decrease in luciferase activity; also recorded: decline in BLI relative to controls"},
      {"measurement": "reduction in twitch force compared to controls", "setting": "TA muscle; NSAID (indomethacin) treatment, day 14 post-cardiotoxin", "result": "33±7", "unit": "%"},
      {"measurement": "Twitch force vs control group", "setting": "TA muscle; indomethacin into cardiotoxin-injured muscles, day 14 post-injury", "result": "significant loss in Twitch force"},
      {"measurement": "PGE2 synthesis by isolated myofibers", "setting": "[2]", "result": "markedly reduced"}
    ]},
    {"smiles": "CC(C(=O)Nc1cc(C#N)ccc1CCCC(=O)O)c1ccc(F)c2ccccc12", "note": "(stereo not drawn) [ONO-AE3-208]", "values": [
      {"measurement": "proliferation induced by PGE2 in the presence of EP4 antagonist", "setting": "[3]", "result": "blunted"}
    ]},
    {"smiles": "CCCC[S+]([O-])c1sc2nc(-c3cccs3)cc(-c3ccccc3)c2c1N", "note": "(stereo not drawn) [SW033291]", "values": [
      {"measurement": "aged MuSC proliferation and Pax7 expression after 1-day pulse", "setting": "aged MuSCs", "result": "characteristic increase in proliferation and maintenance of Pax7 expression"}
    ]}
  ]
}
